For data set [1] the following is noted: cited from earlier work.
Data set [2] relates to rabbit aortic ring (smooth muscle). The data set can be described thus: Relaxation of rabbit aortic ring (Example II, tension tracings FIGS. 1-10). The format is cell-based. Here is the method:
The ability of various C-nitroso compounds as described below to relax a rabbit aortic ring (smooth muscle) was carried out as described in Stamler, J., et al., PNAS, Vol. 89, 444-448 (1992).
Results shown in FIGS. 1-10 which are tracings of force (tension) in the Y-direction versus time in the X-direction with downward direction indicating relaxation and upward direction indicating constriction. Concentrations of C-nitroso compound applied at time in the X-direction are indicated as 10^−9 (1 nanomolar), 10^−6 (1 micromolar), 10^−3 (1 milimolar), etc. “PE” on the figures means the application of phenylephrine, a constricting agent.

Data set [3] in a line: Water solubility (dissolves in water at least to 1 micromolar). The format is physicochemical. To be noted: water-soluble = dissolves in water at least to 1 micromolar. An excerpt:
As used herein, the term “water-soluble” means dissolves in water at least to provide a concentration of 1 micromolar.

For a further data set, the system named is person with angina. The experiment in a line: Example IV: patient case, angina with nitrate tolerance. The format is in vivo, human.
The subject of data set [4] is person with arthritis, esophageal spasm, coronary artery disease, congestive heart failure, impotence and nightly urinary incontinence. The data set can be described thus: Example III: patient case, ibuprofen partly given as nitrosoketoibuprofen. The format is in vivo, human.
Where [5] appears, read: compound alone, at micromolar concentration(s).

`CC(C)C(=O)c1ccc(C(C)C(=O)O)cc1` (centres unmarked) [2-(4′-isobutyrylphenyl)propionic acid]: the “carbon acid pKa” value in data set [1] (of the named substance itself) is given as “about 20”.

Regarding `CC(C)(C)N=O` [2-methyl-2-nitrosopropane], the “relaxation activity (in words)” value in data set [2] (compound alone, at any of the concentrations used, FIG. 10) is “no relaxation effect activity”. The “water solubility (in words)” value in data set [3] is “not water soluble”.

Take `CCC(N=O)(C(C)=O)C(C)=O` [3-ethyl-3-nitroso-2,4-pentanedione]: in data set [3], the “water solubility (in words)” value was “do not meet the definition of water solubility”.

On to `CC(=O)C(C)(N=O)C(C)=O` [3-methyl-3-nitroso-2,4-petanedione, 3-methyl-3-nitroso-2,4-pentanedione], for which the “pKa of the carbon acid from which the C-nitroso compound is obtained” value in data set [1] (pKa of the parent carbon acid, not of the C-nitroso compound) was “less than 10”. Moreover, in data set [2] (compound alone), the “concentration at which relaxation effect is displayed” value is on record as “greater than 10 micromolar”. For the same compound, the “concentration at which further relaxation effect is displayed” value in data set [2] (compound alone, FIG. 9) is “greater than 100 micromolar”. The figures for the “water solubility (in words)” value in data set [3] and in data set [3] (listed as 3-methyl-3-nitroso-2,4-pentanedione) were “not water soluble” and “do not meet the definition of water solubility”, respectively.

As to `O=Nc1ccccc1` [C-nitrosobenzene], in data set [2] (setting [5]), the “relaxation activity (in words)” value is recorded as “no activity”.

Take `CC(C)(N=O)C(=O)CCC(=O)Oc1ccccc1C(=O)O` [Compound (129a)]: the “concentration at which relaxation effect is shown” value in data set [2] (compound alone, FIG. 1) is 10 µM.

With `CC(=O)C1(C)CCC2CCCC[C@@H]2ON1O` (some centres unmarked) [Compound (135a)], the outcome of angina in the data set with person with angina (20 μg/min continuously, after nitroglycerin stopped) was “relief of angina”.

On to `CC(C)Cc1ccc(C(C)C(=O)O)cc1` (centres unmarked) [ibuprofen], for which, in data set [4] (ibuprofen 400 mg, three times a day), the adverse effect entry is given as “gastrointestinal upset”.

On to `O=[N+]([O-])OCC(CO[N+](=O)[O-])O[N+](=O)[O-]` [nitroglycerin], for which the tolerance development result in the data set with person with angina (angina treated with nitroglycerin) is reported as “nitrate tolerance”.

Turning to `CC(C(=O)O)c1ccc(C(=O)C(C)(C)[N+]([O-])=[N+]([O-])C(C)(C)C(=O)c2ccc(C(C)C(=O)O)cc2)cc1` (stereo not drawn) [nitrosoketoibuprofen, dimeric 2-[4′-(α-nitroso)isobutyrylphenyl]propionic acid], the “concentration at which relaxation effect is displayed” value in data set [2] (compound alone, FIGS. 5 and 6) turned out to be 10 nM. The “relaxation activity (in words)” value in data set [2] (compound alone, at concentration higher than 10 nanomolar, FIG. 6) is “not much more activity”; in data set [2] (in conjunction with 100 μM glutathione, FIG. 7), “no activity”. The “activity (in words)” value in data set [2] (without glutathione, at nanomolar concentrations) is “therapeutically active”. Moreover, in data set [4] (ibuprofen 400 mg three times a day with 0.1% by weight of the drug as the dimeric nitrosoketoibuprofen), the outcome of symptoms was “all symptoms are relieved”.

For C-nitrosophenol, the “relaxation activity (in words)” value in data set [2] (setting [5]) is recorded as “no activity”.

The record behind these values is patent publication US7259250B2, “C-nitroso compounds and use thereof” (Duke University, priority 2000, dated 2007).
